Source: patent US20220305003A1, “METHODS OF TREATING CANCER WITH AN INHIBITOR OF ZNF827” (CHILDREN'S MEDICAL RESEARCH INSTITUTE, priority 2019, published 2022)

Tests used:
Format in all cases: cell-based
[1] = system: U-2 OS cells; test: RPA foci by immunofluorescence in U-2 OS cells
Description: Topotecan and aphidicolin were used in this study. For experiments where they were used to cause replication stress and DNA damage, cells were treated with topotecan 2 μg/mL for either 1 hour or 24 hours, or aphidicolin 1 μM for 20 hours. For replication fork stalling induction in the PCNA colocalisation experiments, cells were treated with aphidicolin 0.4 μM for 6-8 hours. Topotecan and aphidicolin were dissolved in DMSO. DMSO was used as a control.
Cells were transfected using Lipofectamine RNAiMAX transfection reagent (ThermoFisher Scientific) with an siRNA concentration of […]. For transfection in a 75 cm^2flask, 3 mL reduced serum medium Opti-MEM (Gibco) was combined with 15 μL of 20 μM siRNA, mixed gently to cover the surface area of the flask and incubated at room temperature for 5 minutes. 30 μL of Lipofectamine RNAiMAX transfection reagent was then added to the mixture, and mixed and incubated for a further 15 minutes at room temperature. Meanwhile, cells to be transfected were trypsinised, resuspended in DMEM supplemented with 10% FCS, and counted using a Beckman Coulter cell counter. 0.8-1×10^6 cells in DMEM supplemented with 10% FCS were directly pipetted onto the transfection mixture in the flask, and shaken gently to mix. Additional DMEM supplemented with 10% FCS was added to the flask up to a total volume of 15 mL. Cells were harvested 72 hours post-transfection for knockdown validation and subsequent experiments.
Cells cultured on coverslips were fixed in 2% paraformaldehyde in PBS at room temperature for 10 minutes. Cells fixed on coverslips were rinsed with deionised water, and then permeabilised using KCM buffer (120 mM potassium chloride, 20 mM NaCl, 10 mM Tris, pH 7.5, 0.1% Triton X-100) at room temperature for 10 minutes. Coverslips were blocked with antibody diluent buffer (ABDIL—20 mM Tris-Cl, pH 7.5, 2% BSA, 0.2% fish gelatine, 150 mM NaCl, 0.1% Triton X-100, 0.1% sodium azide) containing 100 μg/mL RNase A at room temperature for one hour. […] Quantitated analysis was conducted by automation with CellProfiler (Broad Institute).

[2] = system: U-2 OS cells; test: Sister chromatid exchange (SCE) assay in U-2 OS; conditions: topotecan 2 μg/mL 1 hr
Description: For the SCE assay, 20-25% confluent cells were cultured in fresh media supplemented with 7.5 μM […] (BrdU) and 2.5 μM BrdC (BrdU:BrdC 3:1 ratio; Sigma-Aldrich) for 32-48 hours depending on the mitotic index of the cell line. Cell cultures were treated with 100 ng/mL colcemid for the last 4 hours of incubation to accumulate mitotic cells. Cells were harvested by trypsinisation and centrifugation, and then incubated in hypotonic buffer for 10 minutes at 37° C. Swollen cells were fixed by gradually adding 1 mL of fresh ice-cold fixative (methanol/acetic acid 3:1), mixing by inversion and incubating on ice for 5 minutes. Cells were then collected by centrifugation at 1200 rpm for 8 minutes. 10 mL ice cold fixative was added to resuspend the cells followed by 5 minutes incubation on ice and centrifugation at 1200 rpm for 8 minutes. This fixing step was repeated another two times. Fixed cells were then resuspended in 500-1000 μL of ice-cold fixative, and dropped onto clean, dry microscope slides (HDS Surefrost, 50-100 μL cell solution per slide). To drop chromosomes, a clean dry slide was held over a 75° C. water bath, and the cell solution was dropped from a pipette onto the slide, which was quickly flipped and held close to the surface of the water bath for 5 seconds. […]

[3] = system: U-2 OS cells; test: IncuCyte live cell growth and apoptosis (Nucview488 caspase 3) assay
Description: Considering the effects of ZNF827 depletion on DNA replication and the cell cycle, the impact of ZNF827 on cell proliferation and cell viability was examined. Live cell assays were performed on U-2 OS cells in the IncuCyte® to monitor real-time cell proliferation by confluency and cell viability using Nucview488, a fluorescent reporting dye for caspase 3 activity that allows quantitative measurement of apoptotic activity. Cells were treated with topotecan or DMSO control for the first half of the assay and treatments were removed for the remaining time.
Cells were seeded at 20-30% in a 96-well black plate with clear bottom (3603, Corning) and left to adhere at 37° C. with 10% CO2 for at least 3 hours. The media was aspirated and replaced with phenol red free media supplemented 2 μM Nucview® 488 Caspase-3 substrate (Biotium) and placed into the IncuCyte® for baseline imaging without drug treatment. Topotecan 2 μg/mL or DMSO control was added to the wells, and incubated at 37° C. with 10% CO2 for 1 hour. The media was then aspirated, cells were washed carefully once with warm PBS, and the media replaced with phenol red free media supplemented 2 μM Nucview® 488 Caspase-3 substrate (Biotium). The plate was then placed back into IncuCyte®, imaged immediately post drug treatment, and then every 4 hours for 72 to 84 hours in the phase and green channels. Image analysis was performed with the IncuCyte® Zoom software. Cell growth was measured as % confluency over time, and apoptotic activity as green object confluence/area over time.

[4] = agent alone (topotecan 2 μg/mL 24 hr, or 72 hr siRNA knockdown in unchallenged cells)
[5] = agent alone (topotecan 2 μg/mL 1 hour then removed, or ZNF827 depletion with DMSO)
[6] = agent alone (topotecan 2 μg/mL, or ZNF827 depletion vs scrambled control)

| Compound | total nuclear RPA foci [1, 4] | sister chromatid exchanges (SCEs) [2] | cell proliferation (% confluency over time) [3, 5] | apoptotic activity (Nucview488 caspase 3) [3, 6] | total nuclear RPA foci ([1]; 72 hr siRNA knockdown of ZNF827 in topotecan-treated cells (2 μg/mL, 24 hr)) | cell proliferation (% confluency over time) ([3]; ZNF827 depletion in conjunction with topotecan 2 μg/mL) | apoptotic activity (Nucview488 caspase 3) ([3]; combination of ZNF827 depletion and topotecan, compared with topotecan alone) |
| --- | --- | --- | --- | --- | --- | --- | --- |
| CC[C@@]1(O)C(=O)OCc2c1cc1n(c2=O)Cc2cc3c(CN(C)C)c(O)ccc3nc2-1 [topotecan] | greatly induced RPA foci | drastic induction of SCEs | effectively inhibited cell growth | much greater apoptotic activity |  |  |  |
| siZNF827: Stealth RNAi siRNA ZNF827HSS135819 duplex oligoribonucleotides (Invitrogen), SEQ ID NO: 12 and 13 (chain 1 GGGCAGUCUUCUGGCUGAGAAAUCA; chain 2 UGAUUUCUCAGCCAGAAGACUGCCC; listed as RNA, further chemistry not given here) | substantially increased the total number of nuclear RPA foci |  | reduced cell proliferation, surprisingly to a similar efficacy as topotecan | significantly higher apoptotic activity compared to scrambled control | did not cause an observable increase in overall RPA foci | completely abrogated cell proliferation | exceeded markedly |
